Data: patent US8778871B2 (Takeda Pharmaceutical Company Limited, priority 2004, dated 2014)
Non-standard residues stand in square brackets, D forms with d. Primed or numbered codes have the meaning given here. No end group written: not given here. *: point of attachment. Phe(4-F) = N[C@@H](Cc1ccc(F)cc1)C(=O)O; Arg(Me) = CNC(=N)NCCC[C@H](N)C(=O)O; Cha = N[C@@H](CC1CCCCC1)C(=O)O; pGlu = O=C1CC[C@@H](C(=O)O)N1; Adipoyl′ = not defined here; Orn = NCCC[C@H](N)C(=O)O; Hexanoyl = CCCCCC(=O)*; Propionyl = CCC(=O)*; Butyryl = CCCC(=O)*; Bz = O=C(c1ccccc1)*; azaGly = NNC(=O)O; βAla = NCCC(=O)O; For = O=C*

Columns and labels:
hOT7T175 [1] = molecular target: T1, hOT7T175 (Homo sapiens, UniProt Q969F8, L364H); format: cell-based; details: hOT7T175/CHO, FLIPR, evaluation for 40 seconds after initiation of the reaction
T1 construct: expressed in transfected cells
Procedure: The intracellular Ca ion level-increasing activity was measured using FLIPR as in TEST EXAMPLE 2.

[2] = Blood testosterone level decreasing effect in mature male rat (0.1 mM peptide solution); format: in vivo
Procedure: This peptide solution was filled in 5 ALZET osmotic pumps (Model 2001, 0.2 ml in volume, release rate: 0.001 ml/hr, DURECT Corporation). The ALZET pumps filled with the peptide solution were implanted subcutaneously in 5 CD(SD)IGS male rats of 9 weeks old after birth (Charles River Japan, Inc.) on the back under ether anesthesia by one pump for one animal. For negative control, distilled water (Otsuka Pharmaceutical Co., Ltd.) was filled in 5 ALZET osmotic pumps, which were similarly implanted in 5 male CD(SD)IGS rats (Charles River Japan, Inc.), respectively. These pump-implanted rats were fed for 6 days under normal feeding conditions. After weighing, the animal was decapitated to collect blood. After 0.03 ml/ml blood of aprotinin solution (Trasylol, Bayer) containing 0.1 mg/ml EDTA.2Na was added to blood, the mixture was centrifuged at 1,800 G for 25 minutes to isolate/recover plasma. From the plasma obtained, 0.05 ml was applied to radioimmunoassay (DPC.Total Testosterone Kit, Diagnostic Products Corporation) to measure the plasma testosterone level of each rat. The value below the limit of measurement (0.04 ng/ml of plasma level) in radioimmunoassay was treated as 0. A mean value of the testosterone levels from 5 rats receiving the peptide was calculated and a relative value (percent) of the mean value to a mean value from 5 rats receiving distilled water.
In a manner similar to TEST EXAMPLE 14, evaluation was made using 0.1 mM peptide solution and a part of the results obtained are shown in TABLE 30.

[3] = Action of reducing testosterone level in blood in mature male rat (1 mM peptide in 50% DMSO, ALZET osmotic pump); format: in vivo; details: 1 mM peptide in 50% DMSO aqueous solution, ALZET osmotic pump s.c., six days
Procedure: The peptide was encapsulated in five ALZET osmotic pump (Model 2001, 0.2 ml of volume, releasing rate 0.001 ml/hr, DURECT Corporation). The ALZET pumps encapsulated with the peptide solution were implanted to dorsal subcutaneous of five male CD (SD) IGS rat at nine weeks age (Charles River Japan, Inc.) anesthesized with ether for one pump to one rat. Separately, for negative controls, the ALZET osmotic pumps encapsulated with distilled water were implanted to five male CD (SD) IGS rat (Charles River Japan, Inc.) The rats were bred for six days under the normal conditions. After weighing, blood was collected by decapitation. To 1 ml of blood, 0.03 ml of aprotinin (Trasylol, Byer) solution containing 0.1 g/ml EDTA 2Na was added. The plasma was isolated by centrifugation at 1,800×g for 25 minutes and collected. The thus obtained plasma, 0.05 ml was effected by radioimmunoassay. (DPC Total Testosterone Kit, Diagnostic Products Corporation) to measure testosterone level in blood of each rat. The value beneath measuring limit of radioimmunoassay (0.04 ng/ml as concentration of plasma) was treated as zero. The mean values for testosterone level of five rats, to which the peptide was given, was calculated and the relative value (percentage) for the mean values of testosterone level of five rats, to which distilled watrer was given, was estimated.

hOT7T175 [4] = molecular target: T2, hOT7T175 (Homo sapiens, UniProt Q969F8); test: Intracellular Ca ion level-increasing activity using FLIPR (180 seconds; specific activity to Metastin (1-54)); format: cell-based; details: hOT7T175/CHO, change in intracellular calcium ion level for 180 seconds, Tables 21-23
T2 construct: expressed in transfected cells
T2 sequence (Q969F8 whole entry L364H): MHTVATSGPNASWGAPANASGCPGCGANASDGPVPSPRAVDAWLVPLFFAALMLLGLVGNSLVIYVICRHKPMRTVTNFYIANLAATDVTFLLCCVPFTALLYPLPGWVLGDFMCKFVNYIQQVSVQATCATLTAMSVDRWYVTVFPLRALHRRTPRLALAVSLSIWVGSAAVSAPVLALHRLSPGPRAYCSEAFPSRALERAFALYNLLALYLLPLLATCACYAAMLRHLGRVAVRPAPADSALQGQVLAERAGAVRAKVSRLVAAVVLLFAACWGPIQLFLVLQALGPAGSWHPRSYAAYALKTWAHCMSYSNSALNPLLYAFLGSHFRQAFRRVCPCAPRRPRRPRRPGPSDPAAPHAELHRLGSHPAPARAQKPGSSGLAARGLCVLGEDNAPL

T1 sequence (Q969F8 whole entry L364H): as above

Substance | Specific Act. (EC50/MS10 EC50) (hOT7T175 [1]) | Teststerone level in Blood [2] [%] | Testosterone level in Blood [3] [%] | intracellular Ca ion level-increasing activity [specific activity to Metastin (1-54)] (hOT7T175 [4])
3-(4-Hydroxyphenyl)propionyl-D-Trp-Asn-Thr-Phe-AzaGly-Leu-Arg(Me)-Trp-NH2 [Compound No. 559] | 0.3 | 17 | – | –
Ac-D-Arg-Acp-D-Tyr-D-Trp-Asn-Thr-Phe-AzaGly-Leu-Arg(Me)-Trp-NH2 [Compound No. 551] | 1.2 | 8 | – | –
Ac-D-Tyr-D-Pya(4)-Asn-Ser-Phe-AzaGly-Leu-Arg(Me)-Phe-NH2 [Compound No. 516] | 3.7 | 3 | – | –
Ac-D-Tyr-D-Pya(4)-Asn-Thr-Phe-AzaGly-Leu-Arg(Me)-Trp-NH2 [Compound No. 562] | 1.0 | 11 | – | –
Ac-[dY][dW]NSF[azaGly]L[Arg(Me)]W-NH2 [Compound No. 558] | 0.4 | 2 | – | –
Ac-[dY][dW]NTF[azaGly]L[Arg(Me)]F-NH2 [Compound No. 571] | 1.2 | 17 | – | –
Ac-[dY][dW]NTF[azaGly]L[Arg(Me)]W-NH2 [Compound No. 550] | 0.7 | 2 | – | –
Ac-[dY][dW]NTF[azaGly]L[Arg(Me)][Cha]-NH2 [Compound No. 595] | 11.4 | – | 3 | –
Ac-[dY][dW]NTF[azaGly]L[Arg(Me)][Phe(4-F)]-NH2 [Compound No. 592] | 1.1 | – | 2 | –
Ac-[dY][dW]NTF[azaGly]L[Orn]W-NH2 [Compound No. 599] | 0.5 | – | 2 | –
Ac-[dY][dW]NTF[azaGly]V[Arg(Me)]W-NH2 [Compound No. 642] | 3.7 | – | 2 | –
Ac-[dY][dW]NT[Phe(4-F)][azaGly]L[Arg(Me)]W-NH2 [Compound No. 637] | 0.8 | – | 2 | –
Adipoyl-D-Trp-Asn-Thr-Phe-AzaGly-Leu-Arg(Me)-Trp-NH2 ({Adipoyl′}-[dW]NTF[azaGly]L[Arg(Me)]W-NH2) [Compound No. 671] | 3.6 | – | 2 | –
Arg-Acp-D-Tyr-D-Pya(4)-Asn-Ser-Phe-AzaGly-Leu-Arg(Me)-Trp-NH2 [Compound No. 538] | 3.3 | 45 | – | –
Butyryl-[dY][dW]NTF[azaGly]L[Arg(Me)]W-NH2 [Compound No. 567] | 0.8 | 86 | – | –
Bz-NT[Phe(4-F)][azaGly]L[Arg(Me)]W-NH2 [Compound No. 523] | 1.1 | 72 | – | –

Substance | Specific Act. (EC50/MS10 EC50) (hOT7T175 [1]) | Teststerone level in Blood [2] [%] | Testosterone level in Blood [3] [%] | intracellular Ca ion level-increasing activity [specific activity to Metastin (1-54)] (hOT7T175 [4])
Bz-[dY][dW]NTF[azaGly]L[Arg(Me)]W-NH2 [Compound No. 565] | 0.6 | 80 | – | –
Cyclopropanecarbonyl-D-Tyr-D-Trp-Asn-Thr-Phe-AzaGly-Leu-Arg(Me)-Trp-NH2 [Compound No. 566] | 0.8 | 89 | – | –
D-Dap-Acp-D-Tyr-D-Trp-Asn-Thr-Phe-AzaGly-Leu-Arg(Me)-Trp-NH2 [Compound No. 552] | 2.3 | 21 | – | –
D-Nle-Acp-D-Tyr-D-Trp-Asn-Thr-Phe-AzaGly-Leu-Arg(Me)-Trp-NH2 [Compound No. 553] | 1.9 | 39 | – | –
D-Tyr-D-Pya(4)-Asn-Ser(Ac)-Phe-AzaGly-Leu-Arg(Me)-Trp-NH2 [Compound No. 547] | 2.5 | 65 | – | –
D-Tyr-D-Pya(4)-Asn-Ser-Phe-AzaGly-Leu-Arg(Me)-PheΨ(CSNH)NH2 [Compound No. 548] | 1.7 | – | 18 | –
D-Tyr-D-Pya(4)-Asn-Thr-Phe-AzaGly-Leu-Arg(Me)-Trp-NH2 [Compound No. 501] | 1.1 | – | 2 | 10
D-Tyr-D-Tyr-D-Trp-Asn-Thr-Phe-AzaGly-Leu-Arg(Me)-Trp-NH2 ([dY][dY][dW]NTF[azaGly]L[Arg(Me)]W-NH2; N-terminus assumed; SMILES CNC(=N)NCCC[C@H](NC(=O)[C@H](CC(C)C)NC(=O)NNC(=O)[C@H](Cc1ccccc1)NC(=O)[C@@H](NC(=O)[C@H](CC(N)=O)NC(=O)[C@@H](Cc1c[nH]c2ccccc12)NC(=O)[C@@H](Cc1ccc(O)cc1)NC(=O)[C@H](N)Cc1ccc(O)cc1)[C@@H](C)O)C(=O)N[C@@H](Cc1c[nH]c2ccccc12)C(N)=O) [Compound No. 650] | 0.6 | – | 2 | –
For-[dY][dW]NTF[azaGly]L[Arg(Me)]W-NH2 [Compound No. 612] | 0.8 | – | 2 | –
G[dY][dW]NTF[azaGly]L[Arg(Me)]W-NH2 [Compound No. 648] | 1.6 | – | 2 | –
Hexanoyl-D-Trp-Asn-Thr-Phe-AzaGly-Leu-Arg(Me)-Trp-NH2 (Hexanoyl-[dW]NTF[azaGly]L[Arg(Me)]W-NH2; SMILES CCCCCC(=O)N[C@H](Cc1c[nH]c2ccccc12)C(=O)N[C@@H](CC(N)=O)C(=O)N[C@H](C(=O)N[C@@H](Cc1ccccc1)C(=O)NNC(=O)N[C@@H](CC(C)C)C(=O)N[C@@H](CCCNC(=N)NC)C(=O)N[C@@H](Cc1c[nH]c2ccccc12)C(N)=O)[C@@H](C)O) [Compound No. 667] | 1.4 | – | 2 | –
Propionyl-[dY][dW]NTF[azaGly]L[Arg(Me)]W-NH2 [Compound No. 613] | 0.4 | – | 2 | –
Tyr-D-Tyr-D-Trp-Asn-Thr-Phe-AzaGly-Leu-Arg(Me)-Trp-NH2 (Y[dY][dW]NTF[azaGly]L[Arg(Me)]W-NH2; N-terminus assumed; SMILES CNC(=N)NCCC[C@H](NC(=O)[C@H](CC(C)C)NC(=O)NNC(=O)[C@H](Cc1ccccc1)NC(=O)[C@@H](NC(=O)[C@H](CC(N)=O)NC(=O)[C@@H](Cc1c[nH]c2ccccc12)NC(=O)[C@@H](Cc1ccc(O)cc1)NC(=O)[C@@H](N)Cc1ccc(O)cc1)[C@@H](C)O)C(=O)N[C@@H](Cc1c[nH]c2ccccc12)C(N)=O) [Compound No. 675] | 0.8 | – | 2 | –
[dR][βAla][dY][dW]NTF[azaGly]L[Arg(Me)]W-NH2 [Compound No. 554] | 1.3 | 52 | – | –
pGlu-D-Tyr-D-Trp-Asn-Thr-Phe-AzaGly-Leu-Arg(Me)-Trp-NH2 ([pGlu][dY][dW]NTF[azaGly]L[Arg(Me)]W-NH2; SMILES CNC(=N)NCCC[C@H](NC(=O)[C@H](CC(C)C)NC(=O)NNC(=O)[C@H](Cc1ccccc1)NC(=O)[C@@H](NC(=O)[C@H](CC(N)=O)NC(=O)[C@@H](Cc1c[nH]c2ccccc12)NC(=O)[C@@H](Cc1ccc(O)cc1)NC(=O)[C@@H]1CCC(=O)N1)[C@@H](C)O)C(=O)N[C@@H](Cc1c[nH]c2ccccc12)C(N)=O) [Compound No. 652] | 0.9 | – | 2 | –
